Several values for one entry are separate records, joined by “and”; a condition that tells them apart may be missing. Identical values can stand only once.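 Where inhibition never reached the appropriate level, the endpoint shown equals the highest concentration tested. Otherwise, values were interpolated linearly from a five-concentration, 48-hour dose response in 96-well plates. GI50 marks 50% less growth. At the TGI there is no net growth.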 Where a SMILES comes first, the peptide text is derived from it. [ ]: non-standard residue; d: D form. The star is where a group is joined. ξ: configuration not given here. NMeN = CN[C@@H](CC(N)=O)C(=O)O; NMeV = CN[C@H](C(=O)O)C(C)C; ξNMeV = CNC(C(=O)O)C(C)C; Boc = CC(C)(C)OC(=O)*; ξNMeA = CNC(C)C(=O)O
Legend:
Experiment in all cases: NCI anticancer screen, dose series, 48 h
UACC-62 melanoma = tested on: UACC-62 melanoma
SK-MEL-28 melanoma = tested on: SK-MEL-28 melanoma
HT29 colon = tested on: HT29 colon
SF-268 CNS = tested on: SF-268 CNS
OVCAR-8 ovarian = tested on: OVCAR-8 ovarian
MOLT-4 leukemia = tested on: MOLT-4 leukemia
M14 melanoma = tested on: M14 melanoma
OVCAR-3 ovarian = tested on: OVCAR-3 ovarian
CCRF-CEM leukemia = tested on: CCRF-CEM leukemia
EKVX NSCLC = tested on: EKVX NSCLC

SMILES	GI50 (UACC-62 melanoma)	TGI (UACC-62 melanoma)	GI50 (SK-MEL-28 melanoma)	TGI (SK-MEL-28 melanoma)	GI50 (HT29 colon)	TGI (HT29 colon)	GI50 (SF-268 CNS)	TGI (SF-268 CNS)	GI50 (OVCAR-8 ovarian)	TGI (OVCAR-8 ovarian)	GI50 (MOLT-4 leukemia)	TGI (MOLT-4 leukemia)	GI50 (M14 melanoma)	TGI (M14 melanoma)	GI50 (OVCAR-3 ovarian)	TGI (OVCAR-3 ovarian)	GI50 (CCRF-CEM leukemia)	TGI (CCRF-CEM leukemia)	GI50 (EKVX NSCLC)	TGI (EKVX NSCLC)
C=C1C(=O)[C@@]23CC1C(O)[C@@H](OC(C)=O)[C@@H]2C1(C)C(OC(C)=O)C[C@@H](OC(C)=O)C(C)(C)[C@@H]1C[C@H]3OC(C)=O (stereo not given in full)	1.77 µg/mL	3.53 µg/mL	6.69 µM and 1.67 µg/mL	> 10 µM and 3.46 µg/mL	6.13 µM and 2.61 µg/mL	> 10 µM and 7.22 µg/mL	> 10 µM and 6.82 µg/mL	> 10 µM and 28.3 µg/mL	3.37 µM and 3.94 µg/mL	> 10 µM and 20.1 µg/mL	1.71 µM and 1.28 µg/mL	4.1 µM and 4.03 µg/mL	2.33 µM and 2.68 µg/mL	> 10 µM and 7.15 µg/mL	> 10 µM and 3.93 µg/mL	> 10 µM and 8.34 µg/mL	361 nM and 0.239 µg/mL	1.9 µM and 5.21 µg/mL	> 10 µM and 16.8 µg/mL	> 10 µM and 35.6 µg/mL
COC(=O)C(C)N(C)C(=O)[C@H](CC(N)=O)N(C)C(=O)[C@@H]1CCCN1C(=O)[C@H](C(C)C)N(C)C(=O)C(C(C)C)N(C)C(=O)[C@@H](NC(=O)OC(C)(C)C)C(C)C (stereo not given in full) (Boc-V[ξNMeV][NMeV]P[NMeN][ξNMeA]-OMe)	> 100 µM	> 100 µM	> 100 µM	> 100 µM	> 100 µM	> 100 µM	–	> 100 µM	–	> 100 µM	> 100 µM	38.9 µM and > 100 µM	> 100 µM	> 100 µM	> 100 µM	> 100 µM	65.7 µM	> 100 µM	16.9 µM	> 50 µM and 35.3 µM
O=P([O-])(O)OP(=O)([O-])O.[NH-][C@@H]1CCCC[C@H]1[NH-].[Pt+4]	9.62 µM and 4.21 µM	> 100 µM and 33.5 µM	14.1 µM and 5.74 µM	> 100 µM and 61.8 µM	5.67 µM and 3.09 µM	> 100 µM	60.6 µM and 6.27 µM	> 100 µM	14.1 µM and 2.42 µM	> 100 µM	5.9 µM and 3.29 µM	> 100 µM	38.9 µM and 14.8 µM	> 100 µM	23.8 µM and 11.2 µM	> 100 µM and 29.4 µM	13 µM and 6.59 µM	> 100 µM	> 100 µM	> 100 µM
C1CCN(C2OC3C(COC3N3CCCCC3)OC2OC2CCO[C@@H]2N2CCCCC2)CC1 (stereo not given in full)	–	41.8 µM	–	> 100 µM	–	> 100 µM	–	> 100 µM	–	59.2 µM	–	84.7 µM	–	> 100 µM	–	89.3 µM	–	40.4 µM	–	> 100 µM
CC/C(=C(/CC)c1ccc(O)cc1)c1ccc([O-])cc1.CC/C(=C(/CC)c1ccc(O)cc1)c1ccc([O-])cc1.O=C([CH-]C(=O)c1ccccc1)c1ccccc1.O=C([CH-]C(=O)c1ccccc1)c1ccccc1.[Ti+4]	6.61 µM	25.5 µM	15.8 µM	> 100 µM	18.1 µM	32 µM	18 µM	73.2 µM	21.5 µM	46.3 µM	4.93 µM	> 100 µM	8.34 µM	–	27.7 µM	> 100 µM	4.57 µM	> 100 µM	17.6 µM	46 µM
O=C(O)CC12C3C4C5C3C1C5C42 (stereo not given)	–	> 100 µM	–	> 100 µM	–	> 100 µM	–	> 100 µM	–	> 100 µM	–	> 100 µM	–	> 100 µM	–	> 100 µM	–	> 100 µM	–	> 100 µM
COC(=O)C12C3C4C5C3(C#N)C1C5(C(=O)OC)C42C(=O)N(C(C)C)C(C)C (stereo not given)	–	> 100 µM	–	> 100 µM	–	> 100 µM	–	> 100 µM	–	> 100 µM	–	> 100 µM	–	> 100 µM	–	> 100 µM	–	> 67.5 µM	–	> 100 µM
CCOC(=O)C1=C(Nc2ccc(Cl)cc2Cl)OC/C1=N\NS(=O)(=O)c1ccc(C)cc1	–	> 100 µM	–	> 100 µM	–	> 100 µM	–	> 100 µM	–	> 100 µM	–	> 100 µM	–	> 100 µM	–	> 100 µM	–	> 100 µM	–	> 100 µM
COc1ccc(C2=C(c3ccc(OC)c(OC)c3)C(=O)OC2)cc1	< 0.01 µM	13.2 µM	–	> 100 µM	< 0.01 µM	> 100 µM	0.106 µM	> 91.7 µM	0.0451 µM	> 100 µM	< 0.0208 µM	–	< 0.01 µM	> 36.4 µM	0.177 µM	0.389 µM	0.206 µM	0.826 µM	1.95 µM	> 100 µM
COC1OC(C)C(O)CC1OS(=O)(=O)c1ccc(C)cc1 (stereo not given)	–	> 100 µM	–	> 100 µM	–	> 100 µM	–	> 100 µM	–	> 100 µM	–	> 100 µM	–	> 100 µM	–	> 100 µM	–	> 100 µM	–	> 100 µM
NC1CCCCC1N.O=S(=O)([O-])CCCN1CCOCC1.O=S(=O)([O-])CCCN1CCOCC1.[Pt+4]	11.8 µM	> 83.1 µM	5.32 µM	48.3 µM	12.8 µM	> 100 µM	9.92 µM	> 100 µM	10.6 µM	> 100 µM	2.33 µM	14.1 µM	14.4 µM	> 100 µM	19.3 µM	> 100 µM	5.16 µM	58.7 µM	> 100 µM	> 100 µM
Cc1ccc(-c2nc(N)nc3c2nnn3Cc2cccc(CO[C@H]3CCOC3)n2)o1	> 100 µM	> 100 µM	> 100 µM	> 100 µM	> 100 µM	> 100 µM	> 100 µM	> 100 µM	> 100 µM	> 100 µM	98.4 µM	> 100 µM	> 100 µM	> 100 µM	> 100 µM	> 100 µM	> 100 µM	> 100 µM	> 100 µM	> 100 µM
